In patent publication US7557213B2, “Substituted quinolones and methods of use” (ChemoCentryx, Inc., priority 2005, dated 2009):

Molecular target: T1, CCXCKR2 receptor (Homo sapiens, UniProt P25106)
T1 construct: expressed in transfected cells; host or cells: MDA-MB-435S transfected with pcDNA3.1(+)-hRDC1 and/or MCF-7 (endogenous receptor)
Test: Displacement of 125I-labeled SDF-1 from the CCXCKR2 receptor on MCF-7 and/or CCXCKR2-transfected MDA-MB-435S cells (radioligand binding, filtration)
Details: 125I SDF-1, 3 hr at 4° C., MCF-7 and/or MDA-MB-435S cells; read-out: Activity (concentration displacing at least 50% of the SDF-1 from the CCXCKR2 receptor)

T1 sequence (P25106 whole entry): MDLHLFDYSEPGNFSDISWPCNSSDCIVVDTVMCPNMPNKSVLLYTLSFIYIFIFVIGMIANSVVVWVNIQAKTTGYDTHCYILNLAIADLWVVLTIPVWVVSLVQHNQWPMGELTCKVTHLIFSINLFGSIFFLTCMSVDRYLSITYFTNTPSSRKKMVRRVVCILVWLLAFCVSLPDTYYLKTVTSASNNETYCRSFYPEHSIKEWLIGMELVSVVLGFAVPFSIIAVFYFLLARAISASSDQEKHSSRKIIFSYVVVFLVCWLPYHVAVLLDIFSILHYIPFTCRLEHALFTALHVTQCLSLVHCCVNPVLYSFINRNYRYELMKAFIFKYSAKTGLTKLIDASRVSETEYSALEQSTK

Row | SMILES | IC50
1 | COc1ccc(C(=O)c2cn(Cc3cccc(Br)n3)c3ccccc3c2=O)cn1 [Example 189] | < 0.1 µM
2 | Cc1ccccc1C(=O)c1cn(Cc2cccc(Br)n2)c2ccccc2c1=O [Example 121] | < 0.1 µM
3 | Cc1cccc(Cn2cc(C(=O)c3ccccc3Br)c(=O)c3ccccc32)n1 [Example 176] | < 0.1 µM
4 | O=C(c1ccc2c(c1)OCCO2)c1cn(Cc2cccc(Cl)c2)c2ccccc2c1=O [Example 233] | < 0.1 µM
5 | COc1ccc(C(=O)c2cn(Cc3cccc(Br)n3)c3ccccc3c2=O)cc1OC [Example 140] | < 0.1 µM
6 | CN(C)C(=O)c1ccccc1C(=O)c1cn(Cc2cccc(Br)n2)c2ccccc2c1=O [Example 168] | < 0.1 µM
7 | COc1ccc(C(=O)c2cn(Cc3cccc(Br)n3)c3ccc(C)nc3c2=O)cc1F [Example 237] | 0.5 to 20 µM
8 | COc1ccc(C(=O)c2cn(Cc3cccc(Cl)c3)c3ccccc3c2=O)cn1 [Example 246] | < 0.1 µM
9 | Cc1ccc(C(=O)c2cn(Cc3cccc(Br)n3)c3ccc(F)cc3c2=O)cc1C [Example 53] | < 0.1 µM
10 | Cc1ccc(C(=O)c2cn(Cc3cccc(CCl)n3)c3ccccc3c2=O)cc1C [Example 108] | < 0.1 µM
11 | Cc1ccc(C(=O)c2cn(Cc3c(C)cccc3C)c3ccccc3c2=O)cc1C [Example 58] | 0.5 to 20 µM
12 | CCOc1ccc(C(=O)c2cn(Cc3cccc(Br)n3)c3ccccc3c2=O)cc1C [Example 132] | < 0.1 µM
13 | O=C(c1ccc2c(c1)OCCO2)c1cn(Cc2cccc(Br)n2)c2ncccc2c1=O [Example 175] | < 0.1 µM
14 | COc1ccc(C(=O)c2cn(Cc3cccc(Br)n3)c3ccccc3c2=O)cc1C [Example 98] | < 0.1 µM
15 | Cc1cccc(Cn2cc(C(=O)c3ccnc(C)c3)c(=O)c3ccccc32)c1 [Example 26] | 0.5 to 20 µM
16 | O=C(c1ccc2c(n1)CCCC2)c1cn(Cc2cccc(Br)n2)c2ccccc2c1=O [Example 89] | < 0.1 µM
17 | Cc1ccc(C(=O)c2cn(Cc3ccccn3)c3ccc(C(F)(F)F)cc3c2=O)cc1C [Example 13] | 0.5 to 20 µM
18 | COc1cc(C(=O)c2cn(Cc3cccc(Br)n3)c3ccccc3c2=O)ccc1Cl [Example 204] | < 0.1 µM
19 | Cc1cc(C(=O)c2cn(Cc3cccc(Br)n3)c3ccc(F)cc3c2=O)cnc1C [Example 67] | < 0.1 µM
20 | COc1ccc(C(=O)c2cn(Cc3cccc(Br)n3)c3cccnc3c2=O)cc1C [Example 201] | 0.5 to 20 µM
21 | Cc1ccc(C(=O)c2cn(Cc3cccc(Br)c3)c3ccccc3c2=O)cn1 [Example 227] | < 0.1 µM
22 | CN(C)c1ccc(C(=O)c2cn(Cc3cccc(Cl)c3)c3ccccc3c2=O)cn1 [Example 245] | < 0.1 µM

Row | SMILES | IC50
23 | Cc1cccc(Cn2cc(C(=O)c3ccc4c(c3)OCCO4)c(=O)c3ccccc32)n1 [Example 157] | < 0.1 µM
24 | Cc1cc2c(=O)c(C(=O)c3ccc(C)c(C)c3)cn(Cc3cccc(Br)n3)c2c(C)n1 [Example 109] | 0.5 to 20 µM
25 | Cc1cc(C(=O)c2cn(Cc3ccccc3F)c3ccccc3c2=O)ccn1 [Example 24] | 0.5 to 20 µM
26 | CNc1cccc(Cn2cc(C(=O)c3cnc(C)c(C)c3)c(=O)c3ccccc32)n1 [Example 99] | 0.1 to 0.5 µM
27 | Cc1ccc(C(=O)c2cn(-c3ccccc3)c3ccccc3c2=O)cc1C [Example 38] | 0.5 to 20 µM
28 | COc1ccc(C(=O)c2cn(Cc3cccc(C(F)(F)F)n3)c3ccccc3c2=O)cc1F [Example 217] | < 0.1 µM
29 | Cc1ccc(C(=O)c2cn(Cc3ccccc3-c3cncnc3)c3ccccc3c2=O)cc1C [Example 95] | 0.5 to 20 µM
30 | CN(C)c1cccc(C(=O)c2cn(Cc3cccc(Br)n3)c3ccccc3c2=O)c1 [Example 97] | < 0.1 µM
31 | Cc1ccc(C(=O)c2cn(Cc3ccccc3F)c3ccccc3c2=O)nc1C [Example 49] | < 0.1 µM
32 | Nc1ccc(C(=O)c2cn(Cc3cccc(Br)n3)c3ccccc3c2=O)cn1 [Example 223] | 0.5 to 20 µM
33 | Cc1cc(C)cc(C(=O)c2cn(Cc3cccc(Br)n3)c3ccccc3c2=O)c1 [Example 104] | < 0.1 µM
34 | Cc1cccc(Cn2cc(C(=O)c3ccccc3N3CCOCC3)c(=O)c3ccccc32)n1 [Example 205] | < 0.1 µM
35 | Cc1ccc(C(=O)c2cn(C(C)c3cccc(Br)n3)c3ccccc3c2=O)nc1C (stereo not shown) [Example 76] | < 0.1 µM
36 | Cc1cccc(Cn2cc(C(=O)c3ccc4c(c3)OCCO4)c(=O)c3cccnc32)n1 [Example 164] | < 0.1 µM
37 | O=C(c1ccccc1-c1cnco1)c1cn(Cc2cccc(Br)n2)c2ccccc2c1=O [Example 167] | 0.5 to 20 µM
38 | O=C(c1ccc(Cl)nc1)c1cn(Cc2cccc(Cl)c2)c2ccccc2c1=O [Example 236] | 0.5 to 20 µM
39 | Cc1cc(C(=O)c2cn(Cc3ccccc3F)c3ccccc3c2=O)cnc1C [Example 40] | < 0.1 µM
40 | COc1ccc(C(=O)c2cn(Cc3cccc(Br)n3)c3ncccc3c2=O)cc1F [Example 174] | < 0.1 µM
41 | Cc1cnc(C(=O)c2cn(Cc3cccc(Br)n3)c3ccccc3c2=O)cc1C [Example 94] | < 0.1 µM
42 | COc1ccc(C(=O)c2cn(Cc3cccc(Br)n3)c3ccccc3c2=O)nc1C [Example 242] | < 0.1 µM
43 | Cc1cc(Cn2cc(C(=O)c3ccc(C)c(C)c3)c(=O)c3ccccc32)no1 [Example 30, 3-(3,4-Dimethyl-benzoyl)-1-(5-methyl-isoxazol-3-ylmethyl)-1H-quinolin-4-one] | 0.1 to 0.5 µM

Second part, the molecule after the results:

Row | IC50 | SMILES
44 | 0.5 to 20 µM | O=C(c1cccc(C2OCCCO2)c1)c1cn(Cc2cccc(Br)n2)c2ccccc2c1=O [Example 135]
45 | < 0.1 µM | COc1ccc(C(=O)c2cn(Cc3cccc(C(F)(F)F)c3)c3ncccc3c2=O)cc1C [Example 196]
46 | < 0.1 µM | CCc1ccc(C(=O)c2cn(Cc3cccc(C)n3)c3ccccc3c2=O)cn1 [Example 212]
47 | 0.1 to 0.5 µM | Cc1ccc(C(=O)c2cn(Cc3cccc(-c4ncco4)n3)c3ccccc3c2=O)cc1C [Example 41]
48 | < 0.1 µM | CCc1ccc(C(=O)c2cn(Cc3cccc(Br)n3)c3ccccc3c2=O)cc1 [Example 115]
49 | 0.5 to 20 µM | Cc1ccc(C(=O)c2cn(Cc3cccc(C(=O)O)n3)c3ccccc3c2=O)cc1C [Example 83]
50 | 0.5 to 20 µM | COc1ccc(C(=O)c2cn(Cc3cccc(Br)c3)c3ccc(C)nc3c2=O)cc1F [Example 238]
51 | 0.1 to 0.5 µM | Cc1cccc(Cn2cc(C(=O)c3ccc(C)c(C)c3)c(=O)c3cnccc32)c1 [Example 47]
52 | 0.1 to 0.5 µM | Cc1ccnc(C(=O)c2cn(Cc3cccc(Br)n3)c3ccccc3c2=O)c1 [Example 150]
53 | 0.5 to 20 µM | O=C(c1cnccn1)c1cn(Cc2ccccc2F)c2ccccc2c1=O [Example 61]
54 | < 0.1 µM | Cc1ccc(C(=O)c2cn(Cc3cccc(Br)n3)c3cc(F)c(F)cc3c2=O)cc1C [Example 73]
55 | 0.5 to 20 µM | O=C(c1ccncc1)c1cn(Cc2ccccn2)c2ccccc2c1=O [Example 16]
56 | 0.5 to 20 µM | Cc1ccc(C(=O)c2cn(Cc3cccc(Br)n3)c3c(C)ccnc3c2=O)cc1C [Example 116]
57 | 0.5 to 20 µM | Cc1ccc(C(=O)c2cn(Cc3cccc(O)n3)c3ccccc3c2=O)cc1C [Example 213]
58 | < 0.1 µM | COc1cccc(C(=O)c2cn(Cc3cccc(Br)n3)c3ccccc3c2=O)c1 [Example 141]
59 | 0.5 to 20 µM | Cc1cc(C(=O)c2cn(Cc3cccc(C)n3)c3ccccc3c2=O)ccn1 [Example 25]
60 | 0.1 to 0.5 µM | Cc1cc(C(=O)c2cn(Cc3cccc(CO)n3)c3ccccc3c2=O)cnc1C [Example 125]
61 | 0.1 to 0.5 µM | Cc1ncccc1C(=O)c1cn(Cc2cccc(Br)n2)c2ccccc2c1=O [Example 219]
62 | 0.5 to 20 µM | Cc1ccc(C(=O)c2cn(Cc3cccc(CN(C)C)n3)c3ccccc3c2=O)cc1C [Example 118]
63 | < 0.1 µM | Cc1ccc(C(=O)c2cn(Cc3cccc(Br)n3)c3ccccc3c2=O)cn1 [Example 220]

Row | IC50 | SMILES
64 | < 0.1 µM | COc1ccc(C(=O)c2cn(Cc3cccc(C)n3)c3ccccc3c2=O)cc1C [Example 156]
65 | 0.1 to 0.5 µM | CC(C)Oc1ccc(C(=O)c2cn(Cc3cccc(Br)n3)c3ccccc3c2=O)cc1 [Example 218]
66 | 0.5 to 20 µM | Cc1cc(C(=O)c2cn(C(C)c3cccc(Br)n3)c3ccccc3c2=O)cnc1C (stereo not shown) [Example 84]
67 | < 0.1 µM | Cc1cc(C(=O)c2cn(Cc3cccc(Br)n3)c3ccccc3c2=O)ccc1Cl [Example 182]
68 | < 0.1 µM | Cc1ccc(C(=O)c2cn(Cc3cccc(N)n3)c3ccccc3c2=O)nc1C [Example 90]
69 | < 0.1 µM | Cc1ccc(C(=O)c2cn(Cc3cccc(N4CCCCC4)n3)c3ccccc3c2=O)cc1C [Example 68]
70 | 0.1 to 0.5 µM | COc1ccc(C(=O)c2cn(Cc3cccc(C)n3)c3nc(C)c(C)cc3c2=O)cc1C [Example 192]
71 | < 0.1 µM | COc1ccc(C(=O)c2cn(Cc3cccc(Br)n3)c3ncccc3c2=O)cc1 [Example 173]
72 | < 0.1 µM | Cc1cc(C(=O)c2cn(Cc3cccc(N)n3)c3ccccc3c2=O)cnc1C [Example 91]
73 | < 0.1 µM | Cc1ccc(C(=O)c2cn(Cc3ncccn3)c3ccccc3c2=O)cc1C [Example 56]
74 | < 0.1 µM | COc1cc(C(=O)c2cn(Cc3cccc(C)n3)c3ncccc3c2=O)ccc1Cl [Example 166]
75 | < 0.1 µM | CSc1ccc(C(=O)c2cn(Cc3cccc(Br)n3)c3ccccc3c2=O)cc1 [Example 186]
76 | < 0.1 µM | COc1ccc(C(=O)c2cn(Cc3cccc(Br)n3)c3ncccc3c2=O)cc1C [Example 160]
77 | 0.1 to 0.5 µM | Cc1cccc(Cn2cc(C(=O)c3ccc(C(F)(F)F)nc3)c(=O)c3ccccc32)n1 [Example 177]
78 | < 0.1 µM | COc1ccc(C(=O)c2cn(Cc3cccc(Br)n3)c3ccccc3c2=O)cc1 [Example 144]
79 | 0.5 to 20 µM | Cc1ccc(C(=O)c2cn(Cc3ccccn3)c3cc4c(cc3c2=O)OCCO4)cc1C [Example 11]
80 | < 0.1 µM | Cc1ccc(C(=O)c2cn(Cc3cccc(C4CC4)n3)c3ccccc3c2=O)cc1C [Example 74]
81 | < 0.1 µM | Cc1ccc2c(=O)c(C(=O)c3ccc(C)c(C)c3)cn(Cc3cccc(Br)n3)c2n1 [Example 106]
82 | 0.1 to 0.5 µM | Cc1ccc(C(=O)c2cn(Cc3cccc(N4CCOCC4)n3)c3ccccc3c2=O)cc1C [Example 71]
